Experimental data: US6440980B1, “Synergistic inhibition of viral replication by long-chain hydrocarbons and nucleoside analogs” (Avanir Pharmaceuticals, priority 1996, dated 2002)
Like-named read-outs stand apart in the source and are kept apart here.

Assays:
vaccinia virus = assay: microbe, parasite or virus in culture; assay type: cell-based, vaccinia virus (WR strain); details: for EC50: read-out: EC50 for inhibition of vaccinia virus replication
HSV-1 = HSV-1 PFU production in Vero cell cultures; assay type: cell-based, HSV-1 (MacIntyre strain)
HSV-2 = assay: Inhibition of HSV-2 plaque formation in Vero cells; details: for inhibition of viral plaque production at concentrations that were not cytotoxic: 0.2 μM stearyl alcohol, 2 μM arachidyl alcohol; for 50% Inhibition Concentration (mM): alcohol suspension in PLURONIC F-68, Vero cells incubated 12 hr before HSV-2, linear regression, Toxic = monolayer destroyed by end of 12-hour incubation with at least 1.5 mM; for Percent Inhibition of Plaque Formation: PLURONIC F-68 suspension added 12 hr before HSV-2 (erucyl alcohol with the virus), Toxic = monolayer destroyed within 24 hr
all cell lines tested = assay: Cytotoxicity in mammalian cell cultures; details: for IC50: read-out: IC50 (cellular toxicity by chain length)
Text: Three assays were used to quantitate the effects of aliphatic alcohols on cell survival and proliferation: 1) counting cells with a hemocytometer and determining the number of cells that exclude trypan blue; 2) measuring the incorporation of ^3H-thymidine into cellular DNA by adding ^3H-thymidine (from New England Nuclear) to the culture medium, lysing the cells with water and harvesting the DNA onto filter paper; and 3) measuring total cellular protein using a sulforhodamine assay adapted for use in 96-well microtiter plates (Skehan et al., J. Natl. Cancer Inst. […] All of these methods are well known cell viability and cytotoxicity assays.

B cell hybridoma (MBI-9) = assay: 3H-thymidine incorporation into DNA of B cell hybridoma; assay type: cell-based, murine; details: Mus musculus, read-out: IC50 (3H-thymidine incorporation)
Vero cells [1] = details: African green monkey
Vero cells [2] = assay: Cytotoxicity to Vero cells (monolayer integrity, trypan blue exclusion); details: surfactant suspension
influenza virus = assay type: in vivo, human; details: for highest recorded body temperature (mean): erucyl alcohol 0.15 mM five times per day, erucamide 1.5 mM three times per day, untreated 38.9; for mean duration of flu symptoms: untreated 3 days
[3] = test system: human foreskin fibroblasts; assay: Cell proliferation (cytostasis), sulforhodamine staining; assay type: cell-based; details: 1,000 cells/well, 96-hours incubation
Experimental: The effects of n-docosanol and n-docosane suspensions on cell proliferation (cytostasis) were quantitated using the sulforhodamine staining assay on cultures of human foreskin fibroblasts incubated in 96-well plates.
Foreskin fibroblasts were plated with or without aliphatic alcohol suspensions or control surfactant suspensions at 1,000 cells/well (FIG. 6A and FIG. 7) or at 30,000 cells/well (FIG. 6B) in 96 well plates. After incubation for 72 hr or 96 hr at 37° C., cells were precipitated with trichloroacetic acid, stained with sulforhodamine and quantitated by measuring the OD540 in a microtiter plate reader.

[4] = 15 mM n-docosanol, 500 PFU/culture, three days, read-out: EC90 for inhibition of HSV-1 PFU production in the presence of n-docosanol
[5] = Orthopoxvirus vaccinia, Vero, 72 h
[6] = Human alphaherpesvirus 1, Vero, 72 h, read-out: EC90 for inhibition of HSV-1 PFU production, drug used alone
[7] = Human alphaherpesvirus 2, Vero, read-out: Percent Inhibition of Plaque Formation
[8] = Human alphaherpesvirus 2, Vero, read-out: 50% Inhibition Concentration (mM)

Which results are given for `Nc1ncnc2c1ncn2[C@@H]1O[C@H](CO)[C@@H](O)[C@@H]1O` [Ara-A, Adenine 9-β-D-arabinofuranoside]?
EC50 (vaccinia virus; control cultures (medium or PLURONIC F-68), 3 days post-infection): ~20 µM; reduction of EC90 by n-docosanol (HSV-1; 15 mM n-docosanol): 16 fold; EC90 (HSV-1; [4]): ~1.4 µM; EC90 (HSV-1; control cultures without n-docosanol, 500 PFU/culture, three days, read-out: EC90 for inhibition of HSV-1 PFU production, drug used alone): ~22 µM

For `O=C(O)P(=O)(O)O` [PFA, phosphonoformic acid], which “interaction of n-docosanol with the antiviral activity of PFA against vaccinia virus” value (vaccinia virus; presence or absence of n-docosanol or PLURONIC F-68) is on record?
The value was “no drug-drug interaction”.

What about the EC90 (HSV-1; [4]) of the same compound?
Its EC90 is 17 µM.

And the EC90 (HSV-1; Human alphaherpesvirus 1, Vero, 72 h, control cultures without n-docosanol, 500 PFU/culture, three days, read-out: EC90 for inhibition of HSV-1 PFU production, drug used alone)?
Its EC90 is ~18 µM.

Which EC50 (vaccinia virus; [5]) does the source give for `O=c1[nH]c(=O)n([C@H]2C[C@H](O)[C@@H](CO)O2)cc1C(F)(F)F` [Trifluridine, trifluridine deoxyriboside] here?
Its EC50 is ~2 µM.

And the “reduction of EC90 by n-docosanol” value (HSV-1; 15 mM n-docosanol)?
The value was 5 fold.

What about the EC90 (HSV-1; [6]) of the same compound?
The EC90 was ~6.8 µM.

What about the EC90 (HSV-1; read-out: EC90 for inhibition of HSV-1 PFU production in the presence of n-docosanol, 15 mM n-docosanol, 500 PFU/culture, three days) of the same compound?
The EC90 was ~1.35 µM.

For `CCCCCCCCCCCCCCCCCCCCO` [arachidyl alcohol], which “inhibition of viral plaque production at concentrations that were not cytotoxic” value (HSV-2) is on record?
Its value is “no inhibition of viral plaque production”.

And the “50% Inhibition Concentration (mM)” value (HSV-2)?
The value was “Toxic**”.

What about the IC50 (all cell lines tested) of the same compound?
Its IC50 is 1500 µM.

What about the “cytotoxicity of the suspensions (in words)” value (“cytotoxicity” for short) (all cell lines tested; surfactant suspensions) of the same compound?
The value was “extremely cytotoxic”.

And the IC50 (B cell hybridoma (MBI-9); 48 hr incubation)?
The IC50 was ~1700 µM.

What about the “concentration that was not cytotoxic” value (Vero cells [1]) of the same compound?
The value was 2 µM.

`CCCCCCCC/C=C\CCCCCCCCCCCC(N)=O` [erucamide, cis-13-docosenoamide] was tested. Which inhibition at 30 µM (HSV-2; [7]) did it give?
Its inhibition at 30 µM is 34%.

And the inhibition at 590 µM (HSV-2; [7])?
The inhibition at 590 µM was 42%.

And the inhibition at 890 µM (HSV-2; [7])?
The inhibition at 890 µM was 44%.

What about the inhibition at 1200 µM (HSV-2; [7]) of the same compound?
Its inhibition at 1200 µM is 58%.

What about the inhibition at 1500 µM (HSV-2; [7]) of the same compound?
The inhibition at 1500 µM was 68%.

What about the inhibition at 1700 µM (HSV-2; [7]) of the same compound?
Its inhibition at 1700 µM is 78%.

What about the “concentrations tolerable to the cells” value (Vero cells [2]) of the same compound?
The value was ≤ 1700 µM.

What about the “concentrations toxic to Vero cells (cells rounded and detached)” value (Vero cells [1]) of the same compound?
Its value is ≥ 3000 µM.

What about the “highest recorded body temperature (mean)” value (influenza virus) of the same compound?
The value was “about 37 °C”.

And the “mean duration of flu symptoms” value (influenza virus)?
The value was “two”.

Which results are given for `CCCCCCCC/C=C\CCCCCCCCCCCCO` [erucyl alcohol, cis-13-docosen-1-ol]?
EC50 lower than the concentration required for n-docosanol (HSV-2; 0.15 mM vs 9 mM): 60 fold; Percent Inhibition of Plaque Formation (HSV-2; 2 mM): Toxic; Percent Inhibition of Plaque Formation (HSV-2; 4 mM): Toxic; Percent Inhibition of Plaque Formation (HSV-2; 8 mM): Toxic; Percent Inhibition of Plaque Formation (HSV-2; 15 mM): Toxic; direct virucidal effect (HSV-2; HSV-2 incubated with the suspension for 2 hours, subsequent plaque formation on Vero cells): did not inactivate the virus; inhibition at 250 µM (HSV-2; [7]): 70%; inhibition at 500 µM (HSV-2; [7]): 91%; inhibition at 1000 µM (HSV-2; [7]): 93%; EC50 (HSV-2; Human alphaherpesvirus 2, Vero, read-out: effective concentration required to inhibit plaque formation by 50% (EC50), surfactant suspension, Example 5): 0.15 mM; concentrations tolerable to the cells (Vero cells [1]): ≤ 1000 µM; concentrations toxic to Vero cells (cells rounded and detached) (Vero cells [1]): 2000 to 15000 µM; highest recorded body temperature (mean) (influenza virus): 37.8 °C; mean duration of flu symptoms (influenza virus): 1.7 days; frequency of fever per flu episode (influenza virus; in vivo): one to three

How did the EC50 (HSV-2; [8]) turn out when `CCCCCCCCCCCCCCCCCCCCCO` [heneicosanol] was run?
The EC50 was 16 mM.

What about the IC50 (all cell lines tested) of the same compound?
The IC50 was > 15000 µM.

And the “cytotoxicity” value (all cell lines tested; surfactant suspensions)?
Its value is “same minimal level of cytotoxicity”.

Which results are given for `CCCCCCCCCCCCCCCCCCCCCCCCO` [lignoceryl alcohol, n-tetracosanol]?
EC50 (HSV-2; [8]): 14.1 mM; cytotoxicity of the suspensions (in words) (all cell lines tested; surfactant suspensions): same minimal level of cytotoxicity

Which results are given for `CCCCCCCCCCCCCCCCCCCCCC` [n-docosane]?
inhibition at 1000 µM (HSV-2; [7]): 28%; inhibition at 2000 µM (HSV-2; [7]): 31%; inhibition at 4000 µM (HSV-2; [7]): 42%; inhibition at 8000 µM (HSV-2; [7]): 55%; inhibition at 15000 µM (HSV-2; [7]): 58%; antiproliferation effects compared to the surfactant control [3]: minimal antiproliferation effects

How did the “Percent Inhibition of Plaque Formation” value (HSV-2; 4 mM) turn out when `CCCCCCCCCCCCCCCCCCCCCC(=O)O` [n-docosanoic acid] was run?
The value was “Toxic”.

And the “Percent Inhibition of Plaque Formation” value (HSV-2; 8 mM)?
Its value is “Toxic”.

What about the “Percent Inhibition of Plaque Formation” value (HSV-2; 15 mM) of the same compound?
The value was “Toxic^†”.

And the inhibition at 500 µM (HSV-2; [7])?
Its inhibition at 500 µM is 26%.

And the inhibition at 1000 µM (HSV-2; [7])?
Its inhibition at 1000 µM is 16%.

What about the inhibition at 2000 µM (HSV-2; [7]) of the same compound?
The inhibition at 2000 µM was 30%.

What about the “concentrations tolerable to the cells” value (Vero cells [2]) of the same compound?
Its value is ≤ 2000 µM.

How did the EC50 (HSV-2; [8]) turn out when `CCCCCCCCCCCCCCCCCCCCCCCCCCCCO` [n-octacosanol] was run?
Its EC50 is 10.5 mM.

What about the “cytotoxicity” value (all cell lines tested) of the same compound?
The value was “same minimal level of cytotoxicity”.

What does the source list for `NC(=O)c1ncn([C@@H]2O[C@H](CO)[C@@H](O)[C@H]2O)n1` [ribavirin]?
EC50 (vaccinia virus; [5]): ~25 µM; reduction of EC90 by n-docosanol (HSV-1; 15 mM n-docosanol): 75 fold; EC90 (HSV-1; [4]): ~0.33 µM; EC90 (HSV-1; [6]): ~24.6 µM

Which “inhibition of viral plaque production at concentrations that were not cytotoxic” value (HSV-2) does the source give for `CCCCCCCCCCCCCCCCCCO` [stearyl alcohol] here?
Its value is “no inhibition of viral plaque production”.

And the “50% Inhibition Concentration (mM)” value (HSV-2)?
The value was “Toxic**”.

And the IC50 (all cell lines tested)?
The IC50 was < 35 µM.

And the IC50 (B cell hybridoma (MBI-9))?
Its IC50 is < 35 µM.
